# From article PMC6222558, “Synthesis and Evolution of Berberine Derivatives as a New Class of Antiviral Agents against Enterovirus 71 through the MEK/ERK Pathway and Autophagy” (Molecules : A Journal of Synthetic Chemistry and Natural …, 2018)
# pIC50: −log10 of the molar value.
# Key:
# [1] = tested on: Vero cells; test: Cytotoxicity assay (CCK) in Vero cells; format: cell-based, African green monkey
# In short: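 Vero cells seeded at 3 × 10^4 cells/well were exposed overnight-plated to a range of compound concentrations in duplicate for 48 h. Viability was measured by CCK at 450 nm. TC50 is the concentration giving 50% growth inhibition versus controls, calculated by the Reed and Muench method.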
# [2] = tested on: four different genotype enterovirus 71 (EV71) strains; test: CPE assay, summary over the four EV71 strains; format: cell-based; conditions: Enterovirus A, EV71, read-out: IC50 values against all tested EV71 strains
# Description: Thus, all newly synthesized BBR analogues were screened for their anti-EV71 potencies in African green monkey kidney (Vero) cells taking BBR as the positive control. EV71 strains used in the present study include different genotype strains, such as H strain (VR-1432, genotype C2), BrCr strain (VR-1775, genotype A), and JS-52 and SHZH98 (genotype C4). The potency against EV71 strains above mentioned of each tested compound was evaluated by the combination of its IC50 and selectivity index (SI) value as the important therapeutic indication.
# The anti-EV71 activities of all tested compounds were detected by the virus-induced CPE assay. Briefly, cells (3 × 10^4 cells/well) were plated into 96-well culture plates and incubated for 16 h. Then, remove the medium and infected cells with EV71 of 100 × TCID50 (50% tissue culture infective doses) in serum-free medium for 1 h at 37 °C. After that, the unbound viruses were removed and various concentrations of tested compounds were supplemented for incubation of another 72 h. […] TC50 defined as the concentration that leads to the 50% of CPE which determined by the same method in 72 h. In addition, the cells were stained the cells were colored with 0.5% crystal violet in 20% ethanol for 15 min at room temperature and the cells were imaged after rinsed with PBS.
# [3] = tested on: MEK/ERK signaling pathway; test: Western blot of MEK/ERK phosphorylation in EV71-infected Vero cells; format: cell-based, African green monkey; conditions: EV71 H, MOI = 0.1; 24 h treatment
# From the text: The activation of the MEK/ERK signaling pathway has been certified to play an essential role in EV71 life cycle and pathogenesis in various cell types. […] To learn whether or not 2d would still act through MEK/ERK pathway as its parent BBR does, the inhibition experiment of EV71 via this signaling pathway was done with 2d using BBR as the reference. […] We can conclude that compound 2d inhibited the replication of EV71 through down-regulating MEK/ERK signaling pathway.
# Cells were lysed in the M-PER mammalian protein extraction reagent (Thermo, Rockford, IL, USA) containing halt protease inhibitor single-use cocktail (Thermo). The protein concentration was determined by BCA Protein Assay Kit (Thermo). Equal amount of samples (15 μg proteins) were denatured and applied to sodium dodecyl sulfate-polyacrylamide gel electrophoresis (SDS-PAGE), and then electrophoresis products were transferred to a polyvinylidenefluoride (PVDF) film and blocked by 5% (w/v) milk or BSA at room temperature. An hour later, PVDF membranes were incubated at room temperature with specific primary antibody. After a standard washing, membranes were incubated with horse radish peroxidase (HRP)-labeled secondary antibody. The signals were detected using ECL detection kit (GE Healthcare Life Sciences, Pittsburgh, PA, USA). […]
# [4] = tested on: EV71-induced autophagy (AKT, JNK, PI3KIII, LC3II, Beclin-1); test: Western blot of autophagy proteins in EV71-infected Vero cells; format: cell-based, African green monkey; conditions: EV71 H, MOI = 0.1; 24 h treatment
# From the text: EV71 infection triggers autophagy, which provides a support for EV71 replication. Both JNK and PI3KIII proteins as upstream activators, play important roles in regulating autophagy, and inhibition of corresponding signaling pathway could down-regulate autophagy. Otherwise, AKT, as an inhibitor of autophagy factor, could inhibit autophagy with its activation. To further understand whether 2d still affected autophagy after structure modification, the inhibition of activation AKT and phosphorylation of JNK and PI3KIII proteins were also carried out using BBR as a reference.
# Cells were lysed in the M-PER mammalian protein extraction reagent (Thermo, Rockford, IL, USA) containing halt protease inhibitor single-use cocktail (Thermo). The protein concentration was determined by BCA Protein Assay Kit (Thermo). Equal amount of samples (15 μg proteins) were denatured and applied to sodium dodecyl sulfate-polyacrylamide gel electrophoresis (SDS-PAGE), and then electrophoresis products were transferred to a polyvinylidenefluoride (PVDF) film and blocked by 5% (w/v) milk or BSA at room temperature. An hour later, PVDF membranes were incubated at room temperature with specific primary antibody. After a standard washing, membranes were incubated with horse radish peroxidase (HRP)-labeled secondary antibody. The signals were detected using ECL detection kit (GE Healthcare Life Sciences, Pittsburgh, PA, USA). The primary antibodies used in the experiment included β-actin, p-p44/p42 MAPK, p44/p42 MAPK, p-MEK, MEK, p-JNK, JNK, p-AKT, AKT, PI3KIII, LC3B, Beclin-1 (Cell Signaling Technology, Danvers, MA, USA), and EV71-VP1 (Abnova, Taibei, China). HRP-labeled secondary antibodies included goat anti-rabbit and anti-mouse HRP-labeled antibodies (Cell Signaling Technology).
# Figure 4 Compound 2d inhibits EV71-induced autophagy. Vero cells were mock-infected or infected with EV71 (H, MOI = 0.1) for 1 h. The cells were then treated with compound 2d and BBR for 24 h. The cells were harvested and proteins were examined by western blot.
smiles,measurement,setting,value
"COc1ccc2cc3[n+](cc2c1OCC(=O)OCc1ccccc1)CCc1cc2c(cc1-3)OCO2 [2d, 2,3-Methylenedioxy-9-benzyloxyformylmethylenoxy-10-methoxyprotoberberine chloride]","cytotoxicity, in words",[1],lower cytotoxicity
same,TC50 (median toxic concentration),"[1]; African green monkey, 48 h",82.8 µM
same,pIC50,[2],4.83 to 5.15
same,phosphorylation of MEK and ERK induced by EV71 infection,[3],significantly inhibit the phosphorylation of both MEK and ERK
same,AKT activation,[4],activate AKT
same,LC3II (marker for autophagy),[4],decreased
same,expression of Beclin-1,[4],could not affect the expression of Beclin-1
same,phosphorylation of JNK and PI3KIII proteins,[4],inhibit the phosphorylation of JNK and PI3KIII proteins
